Values after ≈ are worked out from the molar mass of the structure shown. Where a SMILES comes first, the peptide text is derived from it.
Columns and labels:
[1] = system: Aspergillus niger KCTC 6317; assay type: cell-based; conditions: Aspergillus niger, PD medium, 25° C., 18 to 24 hours, resazurin fluorescence
Method: (§1) To examine the antimicrobial and antifungal activity of the six types of peptide derivatives prepared in Example 1, antimicrobial and antifungal activity was analyzed using three types of bacterial strains and two types of fungal strains.
(§2) Specifically, to analyze antimicrobial and antifungal activity, a minimal inhibitory concentration (MIC) was measured. The three types of bacterial strains included Escherichia coli KCCM 41290, Staphylococcus aureus KCTC 1621, and Cutibacterium acnes KCTC 3314, and the two types of fungal strains included Candida albicans KCTC 17712, and Aspergillus niger KCTC 6317. The culture of Escherichia coli and Staphylococcus aureus was performed in Luria-Bertani (LB) medium (BD Difco), and the culture of Cutibacterium acnes was performed in reinforced clostridial medium (RCM, BD Difco). The culture of Candida albicans and Aspergillus niger was performed in potato dextrose (PD) medium (BD Difco). The pre-cultured microorganisms or spores were diluted in a medium to 5×10^3 CFU/mL, and each of the six types of peptide derivatives prepared in Example 1 was added at a predetermined concentration. Afterward, a bacterial strain was cultured at 37° C., a fungal strain was cultured at 25° C. for 18 to 24 hours, and optical densities (OD600) were measured using a microplate reader. Fluorescence values (Ex560 and Em600), instead of optical densities, were measured after adding a resazurin reagent to the Aspergillus niger medium to have a concentration of 100 μM. As a control, Ib-AMP4 was used, and the analysis results were expressed as the average of three repeated experiments.

[2] = system: Candida albicans KCTC 17712; assay type: cell-based; conditions: Candida albicans, PD medium, 25° C., 18 to 24 hours, OD600
Method: as §1, §2

[3] = system: Cutibacterium acnes KCTC 3314; assay type: cell-based; conditions: KCTC 3314
Method: as §1, §2

[4] = system: Escherichia coli KCCM 41290; assay type: cell-based; conditions: Escherichia coli
Method: as §1, §2

[5] = system: Staphylococcus aureus KCTC 1621; assay type: cell-based; conditions: Staphylococcus aureus
Method: as §1, §2

[6] = Cytotoxicity, WST-1 cell viability; assay type: cell-based, murine; conditions: mouse, L929 cells (murine fibroblast cell line), L929 cells
Method: (§3) Specifically, cytotoxicity was evaluated using a skin cell line, L929 cells (murine fibroblast cell line). In addition, as comparative groups, Ib-AMP4 and the bee venom-derived AMP, melittin, known to be highly cytotoxic, were used. The L929 cells were cultured in RPMI 1640 medium (Gibco), which was supplemented with 10% FBS (Sigma), antibiotic-antimycotic cocktail, penicillin G (100 IU/mL), streptomycin (100 μg/mL), and amphotericin B (250 ng/ml; Gibco), at 37° C. in 5% CO2. The cells were seeded in a 96-well plate at 1×10^4 cell/well, incubated for 18 hours, treated with each peptide at 1.25 to 160 µg/mL, and then incubated for 24 hours. 10 μL of WST-1 reagent was added to 100 μL of the medium and allowed to react at 37° C. for 30 minutes, and then absorbance (A450) was measured at 450 nm using a microplate reader. Instead of the peptides, 0.1% Triton X-100 and PBS were used as positive and negative controls, respectively, and cell viability was calculated based on the following equation: % Cell viability=[(A450 in peptide solution−A450 in PBS)/(A450 in 0.1% Triton X−100-A450 in PBS)]×100. The analysis results were expressed as mean±S.D of three repeated experiments.

[7] = system: L929 cells (murine fibroblast cell line); assay: Cytotoxicity, WST-1 cell viability; assay type: cell-based; conditions: L929 cells
Method: as §3

[8] = system: sheep red blood cells (sRBCs); assay: Hemolytic activity; assay type: cell-based; conditions: for Hemolytic Activity (%): red cells of sheep
Method: Specifically, hemolytic activity was analyzed using sheep red blood cells (sRBCs). In addition, as comparative groups, Ib-AMP4 and melittin were used. Defibrinated sheep blood (MB cells) was centrifuged (4,000×g, 10 min, 4° C.), washed with PBS three times, and suspended in PBS, thereby preparing an sRBC solution (10% sRBC). 5% sRBC and each peptide were mixed to have a final concentration of 1.25 to 160 μg/mL, allowed to react at room temperature for 30 minutes, and centrifuged to collect a supernatant. The absorbance (A414) of hemoglobin eluted from the red blood cells in the collected supernatant was measured at 414 nm. 0.1% Triton X−100 was used as a positive control, PBS was used as a negative control, and hemolytic activity (% Hemolysis) was calculated based on the following equation: % Hemolysis=[(A414 in peptide solution−A414 in PBS)/(A414 in 0.1% Triton X−100−A414 in PBS)]×100.

[9] = LB medium, 37° C., 18 to 24 hours, OD600

## N=C(N)NCCC[C@H](NC(=O)CNC(=O)[C@H](Cc1c[nH]c2ccccc12)NC(=O)[C@@H](N)CCC(=O)O)C(=O)N[C@@H](CCCNC(=N)N)C(=O)N[C@@H](CS)C(=O)N[C@@H](CS)C(=O)NCC(=O)N[C@@H](Cc1c[nH]c2ccccc12)C(=O)NCC(=O)N1CCC[C@H]1C(=O)NCC(=O)N[C@@H](CCCNC(=N)N)C(=O)N[C@@H](CCCNC(=N)N)C(=O)N[C@@H](Cc1ccc(O)cc1)C(=O)N[C@@H](CS)C(=O)N[C@@H](CCCNC(=N)N)C(=O)N[C@@H](CCCNC(=N)N)C(=O)N[C@@H](Cc1c[nH]c2ccccc12)C(=O)N[C@@H](CS)C(N)=O [Ib-AMP4] (H-EWGRRCCGWGPGRRYCRRWC-NH2; N-terminus assumed)
[1]
  MIC: 80 µg/mL (≈ 31.5 µM)
[2]
  MIC: 60 µg/mL (≈ 23.6 µM)
[3]
  MIC: >100 µg/mL
[4]
  antimicrobial activity (in words): insignificant antimicrobial activity
[4]; [9]
  MIC: > 100 µg/mL
[5]
  antimicrobial activity (in words): insignificant antimicrobial activity
[5]; [9]
  MIC: > 100 µg/mL
[6]; peptide 1.25 μg/mL, 24 hours, read-out: Relative cell viability (%)
  viability at 24 h, 1.25 µg/mL: 95%
[6]; peptide 2.5 μg/mL, 24 hours, read-out: Relative cell viability (%)
  viability at 24 h, 2.5 µg/mL: 94.4%
[6]; peptide 5.0 μg/mL, 24 hours, read-out: Relative cell viability (%)
  viability at 24 h, 5 µg/mL: 95.1%
[6]; peptide 10 μg/mL, 24 hours, read-out: Relative cell viability (%)
  viability at 24 h, 10 µg/mL: 95.7%
[6]; peptide 20 μg/mL, 24 hours, read-out: Relative cell viability (%)
  viability at 24 h, 20 µg/mL: 97.3%
[6]; peptide 40 μg/mL, 24 hours, read-out: Relative cell viability (%)
  viability at 24 h, 40 µg/mL: 90.4%
[6]; peptide 80 μg/mL, 24 hours, read-out: Relative cell viability (%)
  viability at 24 h, 80 µg/mL: 92.2%
[6]; peptide 160 μg/mL, 24 hours, read-out: Relative cell viability (%)
  viability at 24 h, 160 µg/mL: 89.2%
[6]; peptide 160 g/mL as printed, read-out: cell viability
  viability at 24 h, 160 g/mL: ≥ 90%
[7]
  cytotoxic activity (in words): insignificant cytotoxic and hemolytic activity
[8]; 1.25 μg/mL
  Hemolytic Activity (%): 4.09%
[8]; 2.5 μg/mL
  Hemolytic Activity (%): 4.47%
[8]; 5 μg/mL
  Hemolytic Activity (%): 7.42%
[8]; 10 μg/mL
  Hemolytic Activity (%): 8.42%
[8]; 20 μg/mL
  Hemolytic Activity (%): 10.15%
[8]; 40 μg/mL
  Hemolytic Activity (%): 15.79%
[8]; 80 μg/mL
  Hemolytic Activity (%): 16.61%
[8]; sheep red blood cells
  hemolytic activity (in words): insignificant cytotoxic and hemolytic activity

Source: US20240368221A1, “IMPATIENS BALSAMINA-DERIVED ANTI-BACTERIAL PEPTIDE AND ANTI-BACTERIAL COMPOSITION CONTAINING SAME” (V&CO CO., LTD., priority 2021, published 2024)
